Results as given in ChEMBL document CHEMBL5329150, “STING antagonists, synthesized via Povarov-Doebner type multicomponent reaction” (RSC Med Chem, 2023).
pIC50: −log10 of the molar value.

Target: Cyclic GMP-AMP synthase (Mus musculus, UniProt Q8C6L5)
Assay: Inhibition of mouse cGAS by ATP consumption assay

Chain of Cyclic GMP-AMP synthase (Q8C6L5 whole entry): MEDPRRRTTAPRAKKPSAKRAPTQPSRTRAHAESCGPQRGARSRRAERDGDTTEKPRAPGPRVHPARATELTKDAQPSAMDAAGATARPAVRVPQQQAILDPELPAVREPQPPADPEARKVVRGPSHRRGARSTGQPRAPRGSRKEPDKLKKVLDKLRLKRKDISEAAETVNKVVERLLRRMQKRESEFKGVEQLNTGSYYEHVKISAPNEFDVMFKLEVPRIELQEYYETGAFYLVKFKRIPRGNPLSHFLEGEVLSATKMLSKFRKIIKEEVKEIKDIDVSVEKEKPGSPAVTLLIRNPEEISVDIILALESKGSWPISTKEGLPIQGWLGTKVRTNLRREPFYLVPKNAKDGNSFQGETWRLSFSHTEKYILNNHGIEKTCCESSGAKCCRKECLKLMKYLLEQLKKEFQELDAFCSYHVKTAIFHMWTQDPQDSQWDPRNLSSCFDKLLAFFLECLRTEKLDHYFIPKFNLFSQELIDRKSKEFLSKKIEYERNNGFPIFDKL

CCn1nc(C)cc1C(=O)Nc1nc2cc(C(N)=O)cc(OC)c2n1C/C=C/Cn1c(NC(=O)c2cc(C)nn2CC)nc2cc(C(N)=O)cc(OCCCN3CCOCC3)c21
pIC50: 6.57
